# Laboratory results: paper PMC3827198, “Characterisation of AmphiAmR11, an Amphioxus (Branchiostoma floridae) D2-Dopamine-Like G Protein-Coupled Receptor” (PLoS ONE, 2013)
# Counter-ions that a name gives are not always drawn. Like-named read-outs stand apart in the source and are kept apart here.
# How the values were obtained:
# [1] = test system: dopamine-induced ERK1/2 activation; assay: Effect of pertussis toxin and signalling inhibitors on agonist-induced ERK1/2 activation in AmphiAmR11-expressing CHO-K1 cells; assay type: cell-based, Chinese hamster; details: for Effect of inhibitor on dopamine-induced ERK1/2 phosphorylation: 10 µM inhibitor, 5 minutes
# Procedure: Phospho-extracellular signal-related kinase (Phospho-ERK) levels were determined essentially as described previously. Minor modifications have been described. ERK1/2 phosphorylation levels were quantified by densitometry. The developed films were scanned in and analysed using the software program, Aida. The data generated by Aida was then processed using Microsoft Excel. Values for the kinase expression and activity levels were defined as 100% in the control samples. Student’s T-test (two-tailed and unpaired) was used to test for significance.
# Figure 5 Effect of pertussis toxin and signalling inhibitors on dopamine-induced ERK1/2 activation in AmphiAmR11-expressing CHO-K1 cells. For the pertussis toxin experiment, AmphiAmR11-expressing CHO-K1 cells were pre-incubated with pertussis toxin (200 ng/ml) for 16 hours prior to serum-starvation for 2 hours in the absence of the toxin. Cells were then stimulated for 5 mins with 10 nM dopamine (open bar) or F-12 Hams control (black bar). For all other inhibitors, AmphiAmR11-expressing CHO-K1 cells were serum starved for 2 hours including incubation with 10 µM inhibitor or F-12 Hams control for the final 20 (AG1296 and AG1478) or 30 (PP2, LY294002, Ro31-8220, U0126, U73122 and U73343) minutes. Cells were then stimulated for 5 minutes with 10 nM dopamine […] in the presence of the inhibitor. Basal measurement in the absence of dopamine and inhibitor (first black bar) and the dopamine-only response in the absence of inhibitor (first open bar) are shown. (A) Representative blots from three or four independent experiments. […] Data are expressed as the mean + SEM. n = 3 - 4. DA, dopamine; PTX, pertussis toxin; Ro, Ro 31-8220; LY, LY294002.
# Figure S3. Time courses for the effect of dopamine and tyramine on ERK1/2 phosphorylation in AmphiAmR11-expressing CHO-K1 cells. (A and B) AmphiAmR11-expressing CHO-K1 cells were serum-starved for 2 hours, prior to stimulation with tyramine or dopamine at the specified concentration for the specified length of time. Equal quantities of cell lysates were separated by SDS-PAGE and analysed for pERK or tERK by Western blotting. (C and D): AmphiAmR11-expressing CHO-K1 cells were incubated with pertussis toxin (200 ng/mL) for 16 hours followed by stimulation as described for Figures A and B. (A to D) Representative blot for each condition from three to four independent experiments. (E) Summary of the quantified blots. Data are expressed as the mean ± SEM. n = 3-4. PTX, pertussis toxin; Min, minutes.
# AmphiAmR11 [2] = molecular target: T1, AmphiAmR11 (Branchiostoma floridae, UniProt A0PF35); assay: Inhibition of forskolin-stimulated cAMP levels in AmphiAmR11-expressing CHO-K1 cells (agonist mode); assay type: cell-based; details: for Effect on forskolin-stimulated cAMP levels at 1 µM: 1 µM agonist
# T1 sequence (A0PF35 entry or part of it): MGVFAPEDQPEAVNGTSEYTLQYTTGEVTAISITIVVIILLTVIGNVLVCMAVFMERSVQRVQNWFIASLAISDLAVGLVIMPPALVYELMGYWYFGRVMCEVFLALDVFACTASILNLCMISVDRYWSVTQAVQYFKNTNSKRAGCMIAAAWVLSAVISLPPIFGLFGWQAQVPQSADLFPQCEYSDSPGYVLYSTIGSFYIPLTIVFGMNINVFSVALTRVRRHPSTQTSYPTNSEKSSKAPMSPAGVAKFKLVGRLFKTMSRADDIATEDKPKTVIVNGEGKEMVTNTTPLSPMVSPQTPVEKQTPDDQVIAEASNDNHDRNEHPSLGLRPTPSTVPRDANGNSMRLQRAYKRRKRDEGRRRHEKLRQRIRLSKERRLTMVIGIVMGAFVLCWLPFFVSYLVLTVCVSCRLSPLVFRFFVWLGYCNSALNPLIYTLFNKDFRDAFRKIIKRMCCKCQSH
# Procedure: CHO-K1 cells were maintained in Ham’s F-12 nutrient media (Invitrogen Life Sciences) supplemented with 10% charcoal-stripped foetal bovine serum (CS-FBS) (Hyclone, Cramlington, UK), 50 U/μg penicillin/streptomycin and 4 mM L-glutamine (Invitrogen Life Sciences) in 5% CO2 at 37°C. Stably transfected cell lines were generated by the transfection of CHO-K1 cells using Lipofectamine (Invitrogen Life Sciences) as described previously [8, 9].
# cAMP levels in stably transfected CHO-K1 cells were determined as described previously [8, 9, 21], except 100 µM isobutylmethylxanthine (IBMX) was used. cAMP levels are represented as a percentage of basal samples unless otherwise stated. Student’s T-test (two-tailed and unpaired) was used to test for significance. Unless otherwise stated, all data are shown as mean ± SEM. Each data point plotted was the mean of data obtained from at least three experiments. Within each experiment three separate replicate wells were analysed for each condition and the cAMP assays on each of the wells was carried out in duplicate.
# Forskolin was used both to increase basal cAMP levels to make it easier to detect increases and decreases in cAMP levels in the same experiments and also to potentiate responses to agonists to more accurately determine their threshold effects [see 22]. A non-saturating 10 µM concentration of forskolin was used.
# Figure 1 Effect of biogenic amines and synthetic agonists on forskolin-stimulated cAMP levels in AmphiAmR11-expressing CHO-K1 cells. Cells were pre-incubated with 100 µM IBMX for 20 min, followed by incubation with 10 µM forskolin and 100 µM IBMX in the presence of increasing concentrations of various biogenic amines (A) or synthetic agonists (B) for a further 20 min. Data are expressed as the mean ± SEM. n ≥ 3.
# AmphiAmR11 [3] = molecular target: T1, AmphiAmR11; assay: cell-based; assay type: cell-based
# AmphiAmR11 [4] = molecular target: T1, AmphiAmR11; assay: ERK1/2 phosphorylation in AmphiAmR11-expressing CHO-K1 cells (Western blotting); assay type: cell-based; details: for Effect of antagonist on ERK1/2 phosphorylation in the absence of dopamine: 1 μM antagonist
# AmphiAmR11 [5] = molecular target: T1, AmphiAmR11; assay: Calcium mobilisation in AmphiAmR11-expressing CHO-K1 cells (Fura-2, percentage of responding cells per field of view); assay type: cell-based; details: for Calcium response at 10 nM: 10 nM biogenic amine, compared with dopamine
# Procedure: Stably transfected CHO-K1 cells were assayed for changes in intracellular calcium levels using an Olympus Cell^R imaging system and the fluorescent indicator Fura-2, as described previously, with modifications described by Bayliss et al.. At 1 minute into the experiment, a buffer control was added and at 2 minutes into the experiment, the specified concentration of agonist was added. A single coverslip of cells was used per concentration of agonist and the percentage of cells that responded per field of view was calculated. The results from each coverslip gave an n of 1 and each agonist concentration was repeated at least three times on different days.
# Figure 6 Effect of biogenic amines and calcium pathway inhibitors on calcium mobilisation in AmphiAmR11-expressing CHO-K1 cells. AmphiAmR11-expressing cells were exposed to increasing concentrations (A) or 10 nM (B) of biogenic amines for 3 minutes and the number of responding cells per field of view were calculated. Data are expressed as the mean ± SEM. n ≥ 3. FOV, field of view; DA, dopamine; TA, tyramine; NA, noradrenaline; Adr, adrenaline; OA, octopamine.
# AmphiAmR11 [6] = molecular target: T1, AmphiAmR11; assay: Block of tyramine-induced inhibition of forskolin-stimulated cAMP levels in AmphiAmR11-expressing CHO-K1 cells; assay type: cell-based; details: 30 nM tyramine
# AmphiAmR11 [7] = molecular target: T1, AmphiAmR11; assay: Block of dopamine-induced ERK1/2 activation in AmphiAmR11-expressing CHO-K1 cells by antagonists; assay type: cell-based; details: 1 µM antagonist, 10 nM dopamine, 5 min
# [8] = 10 µM forskolin, 100 µM IBMX, 20 min, full concentration response curves, read-out: EC50 for decrease in forskolin-stimulated cAMP levels
# [9] = amines at 100 µM, pertussis toxin 200 ng/mL, 16 hours
# [10] = 1 µM synthetic agonist, 5 min, dopamine as reference
# [11] = 10 µM forskolin, 100 µM IBMX, 20 min
# [12] = 1 μM antagonist, 10 µM forskolin
# [13] = pertussis toxin 200 ng/mL, 16 h, up to 100 µM
compound,measurement,setting,value
Cn1cc(C2=C(c3cn(CCCSC(=N)N)c4ccccc34)C(=O)NC2=O)c2ccccc21 [Ro 31-8220],Effect of inhibitor on dopamine-induced ERK1/2 phosphorylation,[1]; 10 nM dopamine,near basal levels
"NCC(O)c1ccc(O)cc1 (racemic) [octopamine, (±)-p-octopamine hydrochloride]",EC50,AmphiAmR11 [2]; [8],1300 nM
same,Effect on forskolin-stimulated cAMP levels following pertussis toxin treatment,AmphiAmR11 [3]; [9],did not induce an increase
same,Effect on ERK1/2 phosphorylation at 10 nM,"AmphiAmR11 [4]; 10 nM biogenic amine, 5 min",not able to increase
same,Calcium response at 10 nM,AmphiAmR11 [5],less effective than dopamine
"Oc1cc2c(cc1O)[C@@H](c1ccccc1)CNCC2 [SKF38393, R(+)-1-phenyl-2,3,4,5-tetrahydro-(^1H)-3-benzazepine-7,8-diol]",EC50,AmphiAmR11 [2]; [8],792 nM
same,Effect on ERK1/2 phosphorylation at 1 µM,AmphiAmR11 [4]; [10],"less effective than naphazoline, UK14,304 and quinpirole"
"NCCc1c[nH]cn1 [histamine, histamine dihydrochloride]",Effect on forskolin-stimulated cAMP levels at 1 µM,AmphiAmR11 [2]; [11],no effect
same,Effect on ERK1/2 phosphorylation at 10 nM,"AmphiAmR11 [4]; 10 nM biogenic amine, 5 min",not able to increase
"NCCc1ccc(O)c(O)c1 [dopamine, dopamine hydrochloride]",EC50,AmphiAmR11 [2],16.7 nM
same,EC50,AmphiAmR11 [3],470 nM
same,Concentrations coupling AmphiAmR11 to an increase in cAMP levels,AmphiAmR11 [3]; after pertussis toxin,less than 1 µM
same,Effect on forskolin-stimulated cAMP levels following pertussis toxin treatment,AmphiAmR11 [3]; [9],increase in forskolin-stimulated cAMP levels
same,EC50,AmphiAmR11 [4],1.27 nM
same,Duration of ERK1/2 phosphorylation response after the peak,AmphiAmR11 [4]; 1 µM tyramine (level by 30 minutes) or 30 nM dopamine,more sustained ERK1/2 phosphorylation response
same,Time of peak ERK1/2 phosphorylation,AmphiAmR11 [4]; 1 µM tyramine or 30 nM dopamine,approximately 5 minutes
same,Fold more potent than tyramine in MAPK assay,AmphiAmR11 [4]; ratio of EC50 values,10 fold
same,EC50,AmphiAmR11 [5],1.68 nM
same,Fold more potent than tyramine in calcium assay,AmphiAmR11 [5]; ratio of EC50 values,approximately 450 fold
"Brc1c(NC2=NCCN2)ccc2nccnc12 [UK14,304, UK14304]",EC50,AmphiAmR11 [2],350 nM
same,Effect on ERK1/2 phosphorylation at 1 µM,AmphiAmR11 [4]; [10],most effective of the synthetic agonists
COc1cccc(OC)c1OCCNCC1COc2ccccc2O1 (stereo not drawn) [WB4101],Decrease of forskolin-stimulated cAMP levels by antagonist in the absence of agonist,AmphiAmR11 [2]; [12],could inhibit forskolin-stimulated cAMP levels
same,EC50,AmphiAmR11 [2]; [8],32 nM
same,Agonist type at AmphiAmR11 (full or partial),AmphiAmR11 [2]; cAMP assay,partial agonist
same,Inhibition of forskolin-stimulated cAMP levels (maximal),"AmphiAmR11 [2]; concentration-response curves, absence of other agonist",approximately 75%
same,Blocking effect on tyramine-induced response at reduced antagonist concentrations,AmphiAmR11 [6]; varying concentrations of antagonist,small blocking effect
same,Effect of antagonist on ERK1/2 phosphorylation in the absence of dopamine,AmphiAmR11 [4],increase in ERK1/2 phosphorylation
same,Block of dopamine-induced ERK1/2 activation,AmphiAmR11 [7],partial effect
"COc1cc2ncc(-c3ccccc3)nc2cc1OC [AG1296, tyrphostin AG1296]",Effect of inhibitor on dopamine-induced ERK1/2 phosphorylation,[1]; 10 nM dopamine,neither inhibitor had a significant effect
pertussis toxin,Effect of pertussis toxin treatment on amine-mediated decreases in forskolin-stimulated cAMP levels,"AmphiAmR11 [3]; pertussis toxin 200 ng/mL, 16 hours",inhibit the amine-mediated decreases
same,Effect of pertussis toxin on tyramine- and dopamine-induced ERK1/2 phosphorylation at multiple time points,"[1]; pertussis toxin 200 ng/mL, 16 hours, 1 µM tyramine, 30 nM dopamine",abolished
same,Effect of pertussis toxin on ERK1/2 response at 5 minutes of dopamine stimulation,"[1]; pertussis toxin 200 ng/ml, 16 hours, 10 nM dopamine",abolished
"CC(N)c1ccccc1 (racemic) [phenylethylamine, (±)-1-phenylethylamine]",EC50,AmphiAmR11 [2]; [8],16.5 nM
same,Concentrations coupling AmphiAmR11 to an increase in cAMP levels,AmphiAmR11 [3]; after pertussis toxin,above 1 µM
same,Effect on forskolin-stimulated cAMP levels following pertussis toxin treatment,AmphiAmR11 [3]; [9],increase in forskolin-stimulated cAMP levels
same,Concentration dependence of increase in forskolin-stimulated cAMP levels following pertussis toxin,AmphiAmR11 [3]; [13],concentration-dependent effects
same,EC50,"AmphiAmR11 [4]; 5 min stimulation, read-out: EC50 for inducing ERK1/2 phosphorylation",57.8 nM
"CC(C)(C)n1nc(-c2ccc(Cl)cc2)c2c(N)ncnc21 [PP2, 3-(4-chlorophenyl) 1-(1,1-dimethylethyl)-1H-pyrazolo[3,4-d]pyrimidin-4-amine]",Effect of inhibitor on dopamine-induced ERK1/2 phosphorylation,[1]; 10 nM dopamine,no effect
"CNC[C@H](O)c1ccc(O)c(O)c1 [adrenaline, (-)-adrenaline]",EC50,AmphiAmR11 [2],1340 nM
same,Concentration dependence of increase in forskolin-stimulated cAMP levels following pertussis toxin,AmphiAmR11 [3],concentration-dependent effects
same,Concentrations coupling AmphiAmR11 to an increase in cAMP levels,AmphiAmR11 [3],above 1 µM
same,Effect on forskolin-stimulated cAMP levels following pertussis toxin treatment,AmphiAmR11 [3],increase in forskolin-stimulated cAMP levels
same,Effect on ERK1/2 phosphorylation at 10 nM,AmphiAmR11 [4],not able to increase
same,Calcium response at 10 nM,AmphiAmR11 [5],less effective than dopamine
"Clc1cccc(Cl)c1N=C1NCCN1 [clonidine, clonidine hydrochloride]",EC50,AmphiAmR11 [2],623 nM
same,Effect on ERK1/2 phosphorylation at 1 µM,AmphiAmR11 [4],"less effective than naphazoline, UK14,304 and quinpirole"
"CNC[C@H](O)c1cccc(O)c1 [phenylephrine, (R)-(-)-phenylephrine hydrochloride]",Effect on forskolin-stimulated cAMP levels at 1 µM,AmphiAmR11 [2]; [11],little or no effect
same,Effect on ERK1/2 phosphorylation at 1 µM,AmphiAmR11 [4]; [10],little or no effect
"Br.C=CCN1CCc2c(cc(O)c(O)c2Cl)C(c2ccccc2)C1 (racemic) [6-Chloro-APB, (±)-6-chloro-7,8-dihydroxy-3-allyl-1-phenyl-2,3,4,5-tetrahydro-^1H-3-benzazepine hydrobromide]",EC50,AmphiAmR11 [2]; [8],2230 nM
same,Effect on ERK1/2 phosphorylation at 1 µM,AmphiAmR11 [4]; [10],"less effective than naphazoline, UK14,304 and quinpirole"
"CC(C)NCC(O)c1ccc(O)c(O)c1 (racemic) [isoproterenol, (±)-isoproterenol hydrochloride]",Effect on forskolin-stimulated cAMP levels at 1 µM,AmphiAmR11 [2]; [11],little or no effect
same,Effect on ERK1/2 phosphorylation at 1 µM,AmphiAmR11 [4]; [10],little or no effect
"CCN(CC)CCNC(=O)c1cc(Cl)c(N)cc1OC [metoclopramide, metoclopramide hydrochloride]",Block of tyramine-induced inhibition of forskolin-stimulated cAMP levels,AmphiAmR11 [6]; [12],no significant blocking effect
same,Effect of antagonist on ERK1/2 phosphorylation in the absence of dopamine,AmphiAmR11 [4],did not exhibit any agonistic properties
same,Block of dopamine-induced ERK1/2 activation,AmphiAmR11 [7],no significant effect
"N#CC(=C(N)Sc1ccccc1N)C(C#N)=C(N)Sc1ccccc1N [U0126, 1,4-Diamino-2,3-dicyano-1,4-bis(o-aminophenylmercapto)butadiene]",Effect of inhibitor on dopamine-induced ERK1/2 phosphorylation,[1]; 10 nM dopamine,abolished
"COc1cc2ncnc(Nc3cccc(Cl)c3)c2cc1OC [AG1478, tyrphostin AG 1478]",Effect of inhibitor on dopamine-induced ERK1/2 phosphorylation,[1]; 10 nM dopamine,neither inhibitor had a significant effect
"NC[C@H](O)c1ccc(O)c(O)c1 [noradrenaline, (-)-noradrenaline hydrochloride]",EC50,AmphiAmR11 [2],844 nM
same,Concentrations coupling AmphiAmR11 to an increase in cAMP levels,AmphiAmR11 [3]; after pertussis toxin,above 1 µM
same,Effect on forskolin-stimulated cAMP levels following pertussis toxin treatment,AmphiAmR11 [3]; [9],increase in forskolin-stimulated cAMP levels
same,Concentration dependence of increase in forskolin-stimulated cAMP levels following pertussis toxin,AmphiAmR11 [3]; [13],concentration-dependent effects
same,Effect on ERK1/2 phosphorylation at 10 nM,"AmphiAmR11 [4]; 10 nM biogenic amine, 5 min",not able to increase
same,Calcium response at 10 nM,AmphiAmR11 [5],less effective than dopamine
"CNCC(O)c1ccc(O)cc1 (racemic) [synephrine, (±)-synephrine]",EC50,AmphiAmR11 [2],1650 nM
same,Effect on forskolin-stimulated cAMP levels following pertussis toxin treatment,AmphiAmR11 [3]; [9],did not induce an increase
same,Effect on ERK1/2 phosphorylation at 10 nM,"AmphiAmR11 [4]; 10 nM biogenic amine, 5 min",not able to increase
